Test results: patent US20120225093A1, “Abrogating HIV-1 Infection via Drug-Induced Reactivation of Apoptosis” (UNIVERSITY OF MEDICINE AND DENTISTRY OF NEW JERSEY, priority 2010, published 2012)

Assays:
293T cells = assay: Apoptosis and viability of untransfected 293T cells (annexin V / 7AAD); assay type: cell-based, human; conditions: within 24 hr at concentrations used
Protocol: The cells were grown in DME medium (Sigma) and Jurkat cells in RPMI medium (Sigma), both supplemented with penicillin, streptomycin and 8% FBS. Quantitation of apoptosis and viability was performed with a BD FACSCalibur™ system using Annexin V-PE Apoptosis Detection Kit I (BD Biosciences, San Jose Calif.).

eIF5A:DHS complex = molecular target: T1, eIF5A:DHS complex (Homo sapiens, UniProt P49366); assay: Co-immunoprecipitation of eIF5A with DHS from 293T cell extracts; assay type: cell-based; conditions: 293T transfected with FLAG-DHS
T1 construct: expressed in transfected cells; host or cells: 293T cells (FLAG-DHS transfected, eIF5A endogenous)
T1 sequence (P49366 1-369): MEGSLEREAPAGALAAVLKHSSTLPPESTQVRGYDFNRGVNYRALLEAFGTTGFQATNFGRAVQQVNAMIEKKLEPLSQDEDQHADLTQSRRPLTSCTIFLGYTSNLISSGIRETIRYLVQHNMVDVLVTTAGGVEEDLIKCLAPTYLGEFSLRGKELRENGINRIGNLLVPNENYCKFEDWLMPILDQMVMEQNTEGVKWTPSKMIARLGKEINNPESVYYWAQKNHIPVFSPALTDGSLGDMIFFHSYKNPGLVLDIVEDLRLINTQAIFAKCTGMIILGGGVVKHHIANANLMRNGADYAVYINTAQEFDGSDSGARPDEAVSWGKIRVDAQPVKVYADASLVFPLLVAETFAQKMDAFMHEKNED
Protocol: Immunoprecipitation and immunoblotting experiments were carried out as described previously in Hoque et al. Mol Cell Biol 2003, 23:1688-1702.
eIF5A forms tight complexes with its modifying enzymes. Unmodified eIF5A (lysine-50) immunoprecipitates with DHS and deoxyhypusyl-eIF5A interacts with DOHH in vitro. It was discovered that the deoxyhypusyl-eIF5A:DOHH complex formed in vivo can be detected by immunoprecipitation from cell extracts. Taking advantage of this finding, the effects of the drugs on the enzyme-substrate interaction were tested. FLAG-eIF5A was expressed in 293T cells and complexes that immunoprecipitated with anti-FLAG antibody were immunoblotted and probed with antibodies against DOHH. […] As a further control, the DHS inhibitor GC7 was included in this assay. […] As expected, none of the compounds affected the immunoprecipitation of FLAG-eIF5A (FIG. 2D, middle panel) or the expression of endogenous eIF5A (FIG. 2D, bottom panel). Reciprocally, the interaction between endogenous eIF5A and tagged DOHH was inhibited by CPX and DEF (FIG. 2E, right). Similarly, the interaction of endogenous eIF5A with tagged DHS was inhibited by GC7 (FIG. 2E, left) but resistant to CPX and DEF. It is concluded that CPX and DEF, but not P2 or DFOX, target DOHH and inhibit its interaction with its substrate, deoxyhypusylelF5A.

uninfected H9 cells = assay: Mitochondrial membrane potential (JC-1) in uninfected H9 cells; assay type: cell-based; conditions: 30 μM CPX; 200 μM DEF
Protocol: The potential across the mitochondrial membrane of live cells was determined flow-cytometrically with the lipophilic cationic fluorochrome JC-1 (5,5′,6,6′-tetrachloro-1,1′,3,3′-tetraethylbenzimidazolcarbocyanine iodide) immediately after sample harvest (BD™ Mitoscreen Kit, BD Biosciences; San Diego, Calif.). DNA fragmentation was quantified flow-cytometrically, using a TUNEL (terminal deoxynucleotide transferase dUTP nick end-labeling) assay (APO-BRDU™; Phoenix Flow Systems; San Diego, Calif.) and a dual-color assay for annexin V binding and 7-AAD exclusion (Annexin V-PE 7-AAD Apoptosis Detection Kit I™; BD Biosciences Pharmingen, San Jose, Calif.). The apoptotic volume decrease of cells was assessed by the reduction of their diameter (VI-CELL™; Beckman Coulter; Fullerton, Calif.).
Next the effect of the drugs on apoptosis in H9 and H9-HIV cells was examined. Both CPX and DEF increased the collapse of Δψ in a manner that was dose-dependent and accentuated by viral infection (FIGS. 8E and F). […] Thus, exposure to CPX or DEF counteracted the HIV-mediated reduction of Δψ collapse and rendered infected cells more susceptible than uninfected cells to an early step in drug-induced apoptosis.

[1] = molecular target: T2, deoxyhypusine hydroxylase (Homo sapiens, UniProt Q9BU89); assay: Deoxyhypusine hydroxylase activity in H9-HIV cells (peptide-bound hypusine / deoxyhypusine); assay type: cell-based
T2 construct: endogenous in cells; host or cells: H9-HIV cells (H9 infected with HIV-1 HTLV-IIIB)
T2 sequence (Q9BU89 1-302): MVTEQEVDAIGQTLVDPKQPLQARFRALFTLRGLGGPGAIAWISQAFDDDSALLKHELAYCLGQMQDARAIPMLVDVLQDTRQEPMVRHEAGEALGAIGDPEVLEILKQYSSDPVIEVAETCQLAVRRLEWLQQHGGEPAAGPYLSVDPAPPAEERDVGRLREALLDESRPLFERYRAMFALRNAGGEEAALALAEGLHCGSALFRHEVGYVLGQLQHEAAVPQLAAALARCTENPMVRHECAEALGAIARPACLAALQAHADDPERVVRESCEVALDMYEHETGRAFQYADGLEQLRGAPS
Text: FIGS. 11A-D are a set of diagrams showing drug-activated apoptosis and iron chelation. A. Covalent structures of the medicinal chelators DFOX and DEF, and of the antifungal agent CPX and its chelation homolog Agent P2. DFOX, CPX, and Agent P2 interact with iron via a hydroxamate moiety, similar to the chelating domain of DEF. Arrows indicate the uniform bidentate mode of metal binding. DFOX contains three of these moieties and is a hexadentate chelator. B. Effect of drugs and Agent P2 on the expression of iron-dependant (IRE; hatched bars) and retrovirally-encoded (HIV; filled bars) gene expression in transfected 293T cells. Results are expressed relative to untreated controls. C. […] Triangles, peptide-bound hypusine; squares, peptide-bound deoxyhypusine. D. Induction of apoptosis by CPX and by DFOX. H9-HIV cells were treated for 24 hr and then assayed by flow cytometry using TUNEL. Results are expressed as percentage of cells that are TUNEL-positive (±SEM).

## Cc1c(O)c(=O)ccn1C [DEF, 3-hydroxy-1,2-dimethylpyridin-4(1H)-one]
293T cells
  293T cell death: marginal 293T cell death
eIF5A:DHS complex
  interaction of endogenous eIF5A with tagged DHS: resistant
Uninfected H9 cells
  concentrations needed for enhanced Δψ collapse: higher concentrations were required

## Cc1ccn(O)c(=O)c1 [Agent P2, 1-hydroxy-4-methylpyridin-2[1H]-one]
[1]
  inhibition of deoxyhypusine hydroxylase activity / eIF5A hydroxylation: failed to inhibit eIF5A hydroxylation in vivo or in vitro

## Cc1cc(C2CCCCC2)n(O)c(=O)c1 [CPX, 6-cyclohexyl-1-hydroxy-4-methylpyridin-2[1H]-one]
293T cells
  293T cell death: marginal 293T cell death
eIF5A:DHS complex
  interaction of endogenous eIF5A with tagged DHS: resistant
Uninfected H9 cells
  concentrations needed for enhanced Δψ collapse: higher concentrations were required
[1]
  inhibition of deoxyhypusine hydroxylase activity / eIF5A hydroxylation: Dose-dependent inhibition of deoxyhypusine hydroxylase activity
